# Results: patent US20110130432A1, “Heterocyclic Carboxamides For Use As Thrombin Inhibitors” (ASTRAZENECA AB, priority 2008, published 2011)
# Molecular target: T1, Human α-thrombin (Homo sapiens, UniProt P00734)
# T1 construct: Human α-thrombin; purchased Sigma Chemical Co. or Hematologic Technologies
# Assay: Test A: Determination of Thrombin Inhibition with a Chromogenic, Robotic Assay
# Assay type: biochemical
# Settings: chromogenic substrate S-2366 0.30 mmol/L, α-thrombin 0.020 NIHU/mL, 40 minutes incubation at 37° C.
# Experimental: Determination of Thrombin Inhibition with a Chromogenic, Robotic Assay
# The thrombin inhibitor potency is measured with a chromogenic substrate method, in a Plato 3300 robotic microplate processor (Rosys AG, CH-8634 Hombrechtikon, Switzerland), using 96-well, half volume microtitre plates (Costar, Cambridge, Mass., USA; Cat No 3690). Stock solutions of test substance in DMSO (72 μL), 0.1-1 mmol/L, are diluted serially 1:3 (24+48 μL) with DMSO to obtain ten different concentrations, which are analyzed as samples in the assay. 2 μL of test sample is diluted with 124 μL assay buffer, 12 μL of chromogenic substrate solution (S-2366, Chromogenix, Mölndal, Sweden) in assay buffer and finally 12 μL of α-thrombin solution (Human α-thrombin, Sigma Chemical Co. or Hematologic Technologies) in assay buffer, are added, and the samples mixed. The final assay concentrations are: test substance […], S-2366 0.30 mmol/L, α-thrombin 0.020 NIHU/mL The linear absorbance increment during 40 minutes incubation at 37° C. is used for calculation of percentage inhibition for the test samples, as compared to blanks without inhibitor. The IC50 value, corresponding to the inhibitor concentration which causes 50% inhibition of the thrombin activity, is calculated from a log concentration vs. % inhibition curve.
row,IC50,SMILES
1,150 nM,"CC(C)C(=O)O[C@@H](C(=O)N1N=CC[C@H]1C(=O)NCc1cc(Cl)ccc1-n1cnnn1)c1ccc(F)cc1 [Example 26, (1R)-2-[(5S)-5-{[5-Chloro-2-(1H-tetrazol-1-yl)benzyl]carbamoyl}-4,5-dihydro-1H-pyrazol-1-yl]-1-(4-fluorophenyl)-2-oxoethyl 2-methylpropanoate]"
2,35 nM,"O=C(NCc1cc(Cl)ccc1-n1cnnn1)[C@@H]1CC=NN1C(=O)C(O)c1ccc(F)cc1F (stereo partly drawn) [Example 6, (5S)—N-[5-Chloro-2-(1H-tetrazol-1-yl)benzyl]-1-[(2,4-difluorophenyl)(hydroxy)acetyl]-4,5-dihydro-1H-pyrazole-5-carboxamide]"
3,193 nM,"CC(=O)O[C@@H](C(=O)N1N=CC[C@H]1C(=O)NCc1cc(Cl)ccc1-n1cnnn1)c1ccc(F)cc1 [Example 23, [(1R)-2-[(5S)-5-[[5-Chloro-2-(tetrazol-1-yl)phenyl]methylcarbamoyl]-4,5-dihydropyrazol-1-yl]-1-(4-fluorophenyl)-2-oxo-ethyl]acetate]"
4,13 nM,"O=C(O[C@@H](C(=O)N1N=CC[C@H]1C(=O)NCc1cc(Cl)ccc1-n1cnnn1)c1ccc(F)cc1)c1ccccc1 [Example 29, (1R)-2-[(5S)-5-{[5-Chloro-2-(1H-tetrazol-1-yl)benzyl]carbamoyl}-4,5-dihydro-1H-pyrazol-1-yl]-1-(4-fluorophenyl)-2-oxoethyl benzoate]"
5,3.5 nM,"CC(C)(C)C[C@@H](N)C(=O)N1N=CC[C@H]1C(=O)NCc1cc(Cl)ccc1-n1cnnn1 [Example 18, (5S)—N-[5-Chloro-2-(1H-tetrazol-1-yl)benzyl]-1-(4-methyl-D-leucyl)-4,5-dihydro-1H-pyrazole-5-carboxamide]"
6,18 nM,"O=C(NCc1cc(Cl)ccc1-n1cnnn1)[C@@H]1CC=NN1C(=O)C(O)c1cc(F)cc(F)c1 (stereo partly drawn) [Example 4, (5S)—N-[5-Chloro-2-(1H-tetrazol-1-yl)benzyl]-1-[(3,5-difluorophenyl)(hydroxy)acetyl]-4,5-dihydro-1H-pyrazole-5-carboxamide]"

# More lines, now with the values behind:
row,SMILES,IC50
1,O=C(NCc1cc(Cl)ccc1-n1cnnn1)[C@@H]1CC=NN1C(=O)C1(O)CCOc2ccccc21 (stereo partly drawn) [Example 12],130 nM
2,"CC(C)CC[C@@H](O)C(=O)N1OCC[C@H]1C(=O)NCc1cc(Cl)ccc1-n1cnnn1 [Example 39, (3S)—N-[5-Chloro-2-(1H-tetrazol-1-yl)benzyl]-2-[(2R)-2-hydroxy-5-methylhexanoyl]isoxazolidine-3-carboxamide]",13 nM
3,"O=C(NCc1cc(Cl)ccc1-n1cnnn1)[C@@H]1CCON1C(=O)C(O)c1ccc(F)cc1F (stereo partly drawn) [Example 33, (3S)—N-[5-Chloro-2-(1H-tetrazol-1-yl)benzyl]-2-[(2,4-difluorophenyl)(hydroxy)acetyl]isoxazolidine-3-carboxamide]",100 nM
4,"O=C(NCc1cc(Cl)ccc1-n1cnnn1)[C@@H]1CCNN1C(=O)C(O)c1ccc(F)cc1F (stereo partly drawn) [Example 51, (3S)—N-[5-Chloro-2-(1H-tetrazol-1-yl)benzyl]-2-[(2,4-difluorophenyl)(hydroxy)acetyl]pyrazolidine-3-carboxamide]",63 nM
5,"O=C(NCc1cc(Cl)ccc1-n1cnnn1)[C@@H]1CCNN1C(=O)C(O)c1ccccc1F (stereo partly drawn) [Example 50, (3S)—N-[5-Chloro-2-(1H-tetrazol-1-yl)benzyl]-2-[(2-fluorophenyl)(hydroxy)acetyl]pyrazolidine-3-carboxamide]",79 nM
6,"O=C(NCc1cc(Cl)ccc1-n1cnnn1)[C@@H]1CCON1C(=O)[C@H](O)Cc1ccccc1 [Example 47, (3S)—N-[5-Chloro-2-(1H-tetrazol-1-yl)benzyl]-2-[(2R)-2-hydroxy-3-phenylpropanoyl]isoxazolidine-3-carboxamide]",80 nM
